Reference: patent US12098145B2 (Libra Therapeutics, Inc., priority 2022, dated 2024)
pEC50: −log10 of the molar value. Like-named read-outs stand apart in the source and are kept apart here.

Legend:
[1] = system: TFEB; test: TFEB translocation assay (TFEB reporter in U2OS cells, imaging); assay type: cell-based; conditions: Homo sapiens; U2OS cell line with TFEB reporter, 2 hours incubation, nucleus to cytoplasm ratio, normalized to Torin-1; read-out: TFEB Translocation pEC50 (converted)
Method: Example B: TFEB Translocation Assay
Reporter TFEB: the reporter is fused to a sequence of monomeric red fluorescent protein.
The reporter TFEB have been stably expressed in U2OS cell line and used as read-out.
Experiments were performed in 384 MTP well format. Cells were seeded in 384-w at a density of 4000 cells/well in 20 μl/well complete growth medium without antibiotics. Twenty-four hours later, cells were treated with compounds and incubated for further 2 hours. Then the cells were imaged and assayed for the response to various compounds using the reporter for TFEB expressed in the cells as readout.
The experiments were performed in a 384-well format according to the following procedure: • 24 h after seeding, cell culture medium was carefully removed and replaced with 20 μl of Opti-MEM (30′ incubation at 37° C. before compound addition) • Then, cells were incubated with compounds diluted in Opti-MEM+0.015% Tween 80 at the desired concentration, with the reference molecule (agonist) Torin-1 at a top concentration of 1 μM (max signal), and with the other reference molecule (agonist) MLSA-5 at top concentration of 20 μM for 2 hours at 37° C. and 5% CO2. The final percentage of DMSO was 0.5% in all the conditions. • Staining of the nuclei was obtained by incubating the cells with 24 μM/well of Hoechst 3342 in standard Tyrode's buffer for 15 min at RT • Then the cells were fixed with PFA 4% for 30 min at RT • After three washes with standard Tyrode's buffer, samples were acquired by recording two fluorescence emission channels (DS-red and blue) at 20× magnification and with at least 3 fields of view per well in an Operetta CLS microscope (PerkinElmer). • Image analysis was performed by using Harmony software (PerkinElmer). The image analysis involved the following steps: flat-field illumination correction, nuclei segmentation, cytoplasm segmentation and calculation of intensity fluorescence in the cytosol and nuclei compartments. Measurements of signal intensity ratio (nucleus to cytoplasm) was used to obtain information on the effects of compounds on the TFEB translocation. • Data from image analysis measurements were finally loaded and analyzed for normalization and fitting procedures in Genedata Screener© software. Data Analysis
Feature: Mean translocation ratio (mean/well)
Data normalization: Stimulator—Neutral control
The GeneData Screener method we have used, normalizes the median of the Stimulator control wells (Torin-1) to 100% and the median of the Neutral control wells (DMSO) to 0% Activity[%]=100*(x−<Min>)/(<“Max”>−<Min>)

[2] = molecular target: T1, TRPML1 (Homo sapiens, UniProt Q9GZU1); test: Cellular TRPML1 assay (FLIPR, GCaMP6f calcium read-out); assay type: cell-based; conditions: for EC50: HEKT-REx/GCaMP6f/TRPML1 cells, FLIPR TETRA, kinetic response over 300 seconds, read-out: TRPML1 FLIPR pEC50 (converted)
T1 construct: expressed in transfected cells; host or cells: HEK T-REx cells stably expressing GCaMP6f and TRPML1
T1 sequence (Q9GZU1 whole entry): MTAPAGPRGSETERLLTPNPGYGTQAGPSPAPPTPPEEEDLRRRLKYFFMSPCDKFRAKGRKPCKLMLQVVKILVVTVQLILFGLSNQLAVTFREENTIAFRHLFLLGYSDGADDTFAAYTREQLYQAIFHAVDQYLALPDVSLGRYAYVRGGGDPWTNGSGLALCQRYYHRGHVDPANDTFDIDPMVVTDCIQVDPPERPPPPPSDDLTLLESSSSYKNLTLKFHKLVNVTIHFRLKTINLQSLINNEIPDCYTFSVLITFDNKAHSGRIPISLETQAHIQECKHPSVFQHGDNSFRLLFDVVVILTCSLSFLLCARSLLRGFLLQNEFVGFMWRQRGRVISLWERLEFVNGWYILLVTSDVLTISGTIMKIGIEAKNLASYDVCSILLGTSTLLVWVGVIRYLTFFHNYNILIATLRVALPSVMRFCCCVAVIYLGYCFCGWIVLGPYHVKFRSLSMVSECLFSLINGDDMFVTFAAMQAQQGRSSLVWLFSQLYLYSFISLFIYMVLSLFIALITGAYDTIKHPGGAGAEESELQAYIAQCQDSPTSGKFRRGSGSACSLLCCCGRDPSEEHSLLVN
Summary of the method: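 HEK T-REx cells stably expressing TRPML1 and GCaMP6f, seeded 24 h before in Optimem + 0.5% FBS. After ~10 min pre-incubation at room temperature, compounds in Ca2+-free Tyrode's buffer were injected on FLIPR Tetra (final DMSO 0.5%). Calcium fluorescence kinetics followed for 300 s.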

SMILES | EC50 [2] | EC50 [1] | pEC50 [2]
CN(c1ccc(NC(=O)c2nc(N3CCCC3)oc2CC(F)(F)F)cc1F)C1CCCC1(F)F (stereo not drawn) [Example 82, N-{4-[(2,2-difluorocyclopentyl)(methyl)amino]-3-fluorophenyl}-2-(pyrrolidin-1-yl)-5-(2,2,2-trifluoroethyl)oxazole-4-carboxamide] | 1000 to 10000 nM | 10 to 1000 nM | –
O=C(Nc1ccc(N2C3CCCC2C3)c(F)c1)c1nc(N2CCCC2)oc1CC(F)(F)F [Example 83, N-(4-{6-azabicyclo[3.1.1]heptan-6-yl}-3-fluorophenyl)-2-(pyrrolidin-1-yl)-5-(2,2,2-trifluoroethyl)oxazole-4-carboxamide] | – | 10 to 1000 nM | 6.00 to 8.00
O=C(Nc1ccc(N2CCCCC2)c(O)c1)c1nc(N2CCCC2)oc1CC(F)(F)F [Example 84, N-(3-hydroxy-4-(piperidin-1-yl)phenyl)-2-(pyrrolidin-1-yl)-5-(2,2,2-trifluoroethyl)oxazole-4-carboxamide] | 1000 to 10000 nM | 10000 to 100000 nM | –
Cc1oc(N2CCC3(COC3)C2)nc1C(=O)Nc1ccc(N2CCCCC2)c(F)c1 [Example 90, N-(3-fluoro-4-(piperidin-1-yl)phenyl)-5-methyl-2-(2-oxa-6-azaspiro[3.4]octan-6-yl)oxazole-4-carboxamide] | 1000 to 10000 nM | 1000 to 10000 nM | –
Cc1oc(N2CCC3(CC3)C2)nc1C(=O)Nc1ccc(N2CCCCC2)c(F)c1 [Example 91, N-(3-fluoro-4-(piperidin-1-yl)phenyl)-5-methyl-2-(5-azaspiro[2.4]heptan-5-yl)oxazole-4-carboxamide] | 1000 to 10000 nM | 1000 to 10000 nM | –
CCOCc1oc(N2CCCC2)nc1C(=O)Nc1ccc(N2CCCCC2)c(F)c1 [Example 100, 5-(ethoxymethyl)-N-[3-fluoro-4-(piperidin-1-yl)phenyl]-2-(pyrrolidin-1-yl)oxazole-4-carboxamide] | 1000 to 10000 nM | 1000 to 10000 nM | –
CC(C)OCc1oc(N2CCCC2)nc1C(=O)Nc1ccc(N2CCCCC2)c(F)c1 [Example 108, N-(3-fluoro-4-(piperidin-1-yl)phenyl)-5-(isopropoxymethyl)-2-(pyrrolidin-1-yl)oxazole-4-carboxamide] | 1000 to 10000 nM | 10 to 1000 nM | –
CC(C)Cc1oc(N2CCCC2)nc1C(=O)Nc1ccc(OC2CCCC2(F)F)c(F)c1 (stereo not drawn) [Example 111, N-(4-((2,2-difluorocyclopentyl)oxy)-3-fluorophenyl)-5-isobutyl-2-(pyrrolidin-1-yl)oxazole-4-carboxamide] | 1000 to 10000 nM | 10 to 1000 nM | –
Cc1oc(N2CCOCC2)nc1C(=O)Nc1ccc(N2CCCCC2)c(F)c1 [Example 116, N-(3-fluoro-4-(piperidin-1-yl)phenyl)-5-methyl-2-morpholinooxazole-4-carboxamide] | 10000 to 100000 nM | 10000 to 100000 nM | –
Cc1oc(N2CCCC2)nc1C(=O)Nc1ccc(OC2CCCC2)c(F)c1 [Example 120, N-(4-(cyclopentyloxy)-3-fluorophenyl)-5-methyl-2-(pyrrolidin-1-yl)oxazole-4-carboxamide] | 1000 to 10000 nM | 1000 to 10000 nM | –
COCC1(C)CN(c2nc(C(=O)Nc3cc(C)c(O[C@@H]4C[C@@H]5C[C@@H]5C4)c(F)c3)c(CC(F)(F)F)o2)C1 [Example 124, N-(4-(cis-bicyclo[3.1.0]hexan-3-yloxy)-3-fluoro-5-methylphenyl)-2-(3-(methoxymethyl)-3-methylazetidin-1-yl)-5-(2,2,2-trifluoroethyl)oxazole-4-carboxamide] | 10 to 1000 nM | 10 to 1000 nM | –
CCC1(COC)CN(c2nc(C(=O)Nc3cc(C)c(O[C@@H]4C[C@@H]5C[C@@H]5C4)c(F)c3)c(CC(F)(F)F)o2)C1 [Example 125, N-(4-(cis-bicyclo[3.1.0]hexan-3-yloxy)-3-fluoro-5-methylphenyl)-2-(3-(methoxymethyl)-3-ethylazetidin-1-yl)-5-(2,2,2-trifluoroethyl)oxazole-4-carboxamide] | 10 to 1000 nM | 10 to 1000 nM | –
CCC1(CO)CN(c2nc(C(=O)Nc3cc(F)c(O[C@@H]4C[C@@H]5C[C@@H]5C4)c(Cl)c3)c(CC(F)(F)F)o2)C1 [Example 126, N-(4-(cis-bicyclo[3.1.0]hexan-3-yloxy)-3-chloro-5-fluorophenyl)-2-(3-ethyl-3-(hydroxymethyl)azetidin-1-yl)-5-(2,2,2-trifluoroethyl)oxazole-4-carboxamide] | 10 to 1000 nM | 10 to 1000 nM | –
CCC1(CC)CN(c2nc(C(=O)Nc3cc(F)c(O[C@@H]4C[C@@H]5C[C@@H]5C4)c(Cl)c3)c(CC(F)(F)F)o2)C1 [Example 127, N-(4-(cis-bicyclo[3.1.0]hexan-3-yloxy)-3-chloro-5-fluorophenyl)-2-(3,3-diethylazetidin-1-yl)-5-(2,2,2-trifluoroethyl)oxazole-4-carboxamide] | 10 to 1000 nM | 10 to 1000 nM | –
Cc1cc(NC(=O)c2nc(N3CC(C)(CO)C3)oc2CC(F)(F)F)cc(F)c1O[C@@H]1C[C@@H]2C[C@@H]2C1 [Example 128] | 10 to 1000 nM | 10 to 1000 nM | –
Cc1cc(NC(=O)c2nc(N3CC(C)(CO)C3)oc2CC(F)(F)F)cc(F)c1OC1CC2CC(C2)C1 (stereo not drawn) [Example 129, N-(4-(bicyclo[3.1.1]heptan-3-yloxy)-3-fluoro-5-methylphenyl)-2-(3-(hydroxymethyl)-3-methylazetidin-1-yl)-5-(2,2,2-trifluoroethyl)oxazole-4-carboxamide] | 10 to 1000 nM | 10 to 1000 nM | –
CC1(CO)CN(c2nc(C(=O)Nc3ccc(OC4CC5CC(C5)C4)c(F)c3)c(CC(F)(F)F)o2)C1 (stereo not drawn) [Example 135, N-(4-(bicyclo[3.1.1]heptan-3-yloxy)-3-fluorophenyl)-2-(3-(hydroxymethyl)-3-methylazetidin-1-yl)-5-(2,2,2-trifluoroethyl)oxazole-4-carboxamide] | 10 to 1000 nM | 10 to 1000 nM | –

Further lines, with some results ahead:

EC50 [2] | SMILES | EC50 [1] | pEC50 [2]
10000 to 100000 nM | Cc1oc(N2CCC(CO)C2)nc1C(=O)Nc1ccc(N2CCCCC2)c(F)c1 (stereo not drawn) [Example 96, N-(3-fluoro-4-(piperidin-1-yl)phenyl)-2-(3-(hydroxymethyl)pyrrolidin-1-yl)-5-methyloxazole-4-carboxamide] | 10000 to 100000 nM | –
1000 to 10000 nM | Cc1oc(N2CCCC2)nc1C(=O)Nc1ccc(N2CCCCC2)c(F)c1 [Example 112, N-(3-fluoro-4-(piperidin-1-yl)phenyl)-5-methyl-2-(pyrrolidin-1-yl)oxazole-4-carboxamide] | 1000 to 10000 nM | –
10000 to 100000 nM | Cc1oc(-n2cccn2)nc1C(=O)Nc1ccc(N2CCCCC2)c(F)c1 [Example 118, N-(3-fluoro-4-(piperidin-1-yl)phenyl)-5-methyl-2-(1H-pyrazol-1-yl)oxazole-4-carboxamide] | 1000 to 10000 nM | –
10 to 1000 nM | COC1(C)CN(c2nc(C(=O)Nc3cc(F)c(O[C@@H]4C[C@@H]5C[C@@H]5C4)c(Cl)c3)c(CC(F)(F)F)o2)C1 [Example 130, N-(4-(cis-bicyclo[3.1.0]hexan-3-yloxy)-3-chloro-5-fluorophenyl)-2-(3-methoxy-3-methylazetidin-1-yl)-5-(2,2,2-trifluoroethyl)oxazole-4-carboxamide] | 10 to 1000 nM | –
10 to 1000 nM | CCC1(CC)CN(c2nc(C(=O)Nc3cc(C)c(O[C@@H]4C[C@@H]5C[C@@H]5C4)c(F)c3)c(CC(F)(F)F)o2)C1 [Example 131, N-(4-(cis-bicyclo[3.1.0]hexan-3-yloxy)-3-fluoro-5-methylphenyl)-2-(3,3-diethylazetidin-1-yl)-5-(2,2,2-trifluoroethyl)oxazole-4-carboxamide] | 10 to 1000 nM | –
1000 to 10000 nM | CC1(C)CN(c2nc(C(=O)Nc3ccc(OC4CCC5CC54)c(F)c3)c(CC(F)(F)F)o2)C1 (stereo not drawn) [Example 140, N-(4-(bicyclo[3.1.0]hexan-2-yloxy)-3-fluorophenyl)-2-(3,3-dimethylazetidin-1-yl)-5-(2,2,2-trifluoroethyl)oxazole-4-carboxamide] | 10 to 1000 nM | –
10 to 1000 nM | COC1(C)CN(c2nc(C(=O)Nc3cc(F)c(O[C@@H]4C[C@@H]5C[C@@H]5C4)c(C#N)c3)c(CC(F)(F)F)o2)C1 [Example 142, N-(4-(cis-bicyclo[3.1.0]hexan-3-yloxy)-3-cyano-5-fluorophenyl)-2-(3-methoxy-3-methylazetidin-1-yl)-5-(2,2,2-trifluoroethyl)oxazole-4-carboxamide] | 10 to 1000 nM | –
